Legend:
[1] = tested on: metastatic urothelial carcinoma (mUC); settings: mUC patients progressed despite prior platinum-containing chemotherapy; cited from earlier work
[2] = tested on: relapsed/refractory metastatic urothelial carcinoma (mUC); settings: pretreated patients with relapsed/refractory mUC; cited from earlier work
[3] = tested on: peripheral blood mononuclear cells (PBMC); test: PBMC incubated with Cabozantinib, master regulator transcription factors of CD4+ T-cell polarization (FIGS. 1A and 1B); assay type: cell-based; settings: PBMCs, 3-4 days, 10% FBS-RPMI, Cabozantinib 10 uM vs DMSO control; three donors
Protocol: With reference to FIGS. 1A and 1B, peripheral blood mononuclear cells (PBMC) were obtained by centrifugation from buffy coat. PBMCs were incubated for 3-4 days in a 24 well plate with 10% FBS-RPMI medium with DMSO (control) or Cabozantinib (10 uM). Representative data obtained from three different donors were shown. […] Naïve CD4+ T-cells can polarize toward four CD4+ lineages.

[4] = tested on: metastatic urothelial carcinoma and other genitourinary malignancies; test: Phase I study of CaboNivo and CaboNivoIpi in patients; assay type: in vivo, human
Text: This example provides results of a Phase I study of Cabozantinib (Cabo)+Nivolumab (Nivo) and (CaboNivo) Cabo+Nivolumab+Ipilimumab (Ipi) (CaboNivoIpi) in patients with metastatic urothelial carcinoma and other genitourinary malignancies.
The study provides results of a Phase I study of Cabozantinib+Nivolumab and Cabozantinib+Nivolumab+Ipilimumab in patients with metastatic urothelial carcinoma and other genitourinary malignancies. The purpose of the study was to determine the dose limiting toxicity (DLT) and recommended Phase II dose (RP2D) of the combination of CaboNivo and separately the combination of CaboNivolpi. In the study, DLT was defined as any event requiring a patient to discontinue study treatment. The DLT evaluation period was 4 weeks (Part 1) and 6 weeks (Part 2).
Secondary endpoints for the study included overall response rate (ORR) by RECIST v1.1; duration of response; progression free survival (PFS); and overall survival (OS). Exploratory Endpoints included the identification of immune subset biomarkers associated with PD-L1 and MET expression as well as correlation with efficacy.
Key eligibility criteria for the study included: • Histologically confirmed diagnostic of genitourinary (GU) malignancy; • Patients with metastatic GU malignancy who has disease progression on at least one standard therapy or there must be no standard treatment that prolongs survival; • A Karnofsky performance status of greater than or equal to 70 percent; and • One evaluable site of disease or bone disease by NaF PET/CT.

[5] = tested on: Treg (CD4+CD25hiFoxp3+) in CD4+ T-cells; test: Treg population in urothelial cancer patients treated with cabozantinib (FIGS. 1, 2); assay type: in vivo, human
Text: Directly killing the tregs, and 2. Influencing treg polarization. See Apolo, A B, et al., J. Clin. Oncol. 2014; 32s:abstr 4501.
With reference to FIG. 2, it is believed that cabozantinib downregulates regulatory T cell population by acting on T cell polarization via inhibition of transcription factor Foxp3. The biologic rationale for combining cabozantinib and immune checkpoint blockade in mUC can be extrapolated from the results shown in FIGS. 2A and 2B. In FIG. 2A, patients with lower percent Treg (CD4+CD25hiFoxp3+) in CD4+ T-cells (<3.89%=median value) at baseline had better response compared with those who had higher percent Treg at baseline.

Row | Compound | clinical activity [1] | clinical activity [2] | suppression of master regulator transcription factors of CD4+ T-cell polarization [3] | patients with 3 dose reductions ([4]; 2 of the 18 patients with dose reduction) [%] | patients with 2 dose reductions ([4]; 6 of the 18 patients with dose reduction) [%] | patients with 1 dose reduction ([4]; 10 of the 18 patients with dose reduction) [%] | patients with ≥1 dose reduction of cabozantinib ([4]; 18 of 42 patients) [%] | median dose reduction ([4]; number of dose reductions per patient, 18 patients) | percent Treg among CD4+ T-cells ([5]; after treatment with Cabozantinib, FIG. 2B) | Treg population ([5]; urothelial cancer patients, FIG. 1, see Apolo et al. 2014)
1 | Nivolumab: IgG4 anti-PD-1 monoclonal antibody sold under the name OPDIVO | clinical activity | – | – | – | – | – | – | – | – | –
2 | COc1cc2nccc(Oc3ccc(NC(=O)C4(C(=O)Nc5ccc(F)cc5)CC4)cc3)c2cc1OC [Cabozantinib, N-(4-(6,7-dimethoxyquinolin-4-yloxy)phenyl)-N′-(4-fluorophenyl)cyclopropane-1,1-dicarboxamide] | – | clinical activity | suppresses only Foxp3 | 11 | 33 | 56 | 43 | 1 (range 1-3) | decreased significantly | decrease the Treg population

Source: US20230130243A1, “Method of Treating Urothelial Carcinoma and Other Genitourinary Malignancies Using N-(4-(6,7-dimethoxyquinolin-4-yloxy)phenyl)-N'-(4-fluorophenyl)cyclopropane-1,1-dicarboxamide” (The United States of America, as Represented by the …, priority 2016, published 2023)
